A word on the IC50: it is the concentration that gives 50% inhibition.

The target of this test is Tumor necrosis factor (Homo sapiens, UniProt P01375). Put plainly: Inhibition of TNFalpha (unknown origin) in HEK-Blue-hTLR2 cells assessed as inhibition of TNFalpha-induced NFkappaB activation pretreated for 2 hrs followed by incubation with TNFalpha for 18 hrs by SEAP assay.
Tumor necrosis factor, sequence (P01375 whole entry): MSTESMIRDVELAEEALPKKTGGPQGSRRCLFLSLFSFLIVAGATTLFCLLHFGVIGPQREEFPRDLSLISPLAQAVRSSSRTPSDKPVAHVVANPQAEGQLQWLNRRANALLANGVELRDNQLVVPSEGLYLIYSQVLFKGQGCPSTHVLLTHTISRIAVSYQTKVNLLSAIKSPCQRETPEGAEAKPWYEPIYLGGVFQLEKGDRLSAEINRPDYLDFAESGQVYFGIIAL
Regarding `CCCCCCCCCCCCCCOCC(CNC(=O)CC[C@H](NC(=O)OCC1c2ccccc2-c2ccccc21)C(=O)O)OCCCCCCCCCCCCCC` (some centres not stated), the IC50 is > 30 µM.

Turning to `CCCCCCCCCCCCCCOCC(CNC(=O)[C@H](CCCCN)NC(=O)OCC1c2ccccc2-c2ccccc21)OCCCCCCCCCCCCCC` (some centres not stated), the IC50 is > 30 µM.

For `CCCCCCCCCCCCCCOCC(CNC(=O)C(CC1CCNCC1)NC(=O)OCC1c2ccccc2-c2ccccc21)OCCCCCCCCCCCCCC` (configuration not stated), the IC50 was > 30 µM.

As to `CCCCCCCCCCCCCCOCC(CNC(=O)[C@H]1CCCN1)OCCCCCCCCCCCCCC` (some centres not stated), the IC50 was > 30 µM.

As for `CCCCCCCCCCCCCCOCC(CNC(=O)CCN)OCCCCCCCCCCCCCC` (configuration not stated), the IC50 was > 30 µM.

Regarding `CCCCCCCCCCCCCCOCC(CNC(=O)[C@@H](N)CCCCN)OCCCCCCCCCCCCCC` (some centres not stated), the IC50 is > 30 µM.

As to `CCCCCCCCCCCCCCOCC(CNC(=O)[C@H](CCCCN)NC(C)=O)OCCCCCCCCCCCCCC` (some centres not stated), the IC50 is > 30 µM.

In the case of `CCCCCCCCCCCCCCOCC(CNC(=O)CCCCCN)OCCCCCCCCCCCCCC` (configuration not stated), the IC50 was > 30 µM.

As to `CCCCCCCCCCCCCCOCC(CNC(=O)[C@H]1CC[C@H](N)CC1)OCCCCCCCCCCCCCC` (some centres not stated), the concentration for half-maximal inhibition (IC50) was > 30 µM.

Regarding `CCCCCCCCCCCCCCOCC(CNC(=O)[C@@H](CCCCN)NC(=O)OCc1ccccc1)OCCCCCCCCCCCCCC` (some centres not stated), the IC50 is > 30 µM.

As to `CCCCCCCCCCCCCCOCC(CNC(=O)C1(NC(=O)OCc2ccccc2)CCNCC1)OCCCCCCCCCCCCCC` (configuration not stated), the IC50 is > 30 µM.

Turning to `CCCCCCCCCCCCCCOCC(CNC(=O)[C@H](CCCCN)NCc1ccc(F)cc1)OCCCCCCCCCCCCCC` (some centres not stated), the IC50 was > 30 µM.

For the molecule `CCCCCCCCCCCCCCOCC(CNC(=O)[C@H](CCCCN)NCc1ccc(-c2ccccc2)cc1)OCCCCCCCCCCCCCC` (some centres not stated), the IC50 was > 30 µM.

For `CCCCCCCCCCCCCCOCC(CNC(=O)[C@@H](CCCCN)NCc1ccccc1)OCCCCCCCCCCCCCC` (some centres not stated), the IC50 was > 30 µM.

Turning to `CCCCCCCCCCCCCCOCC(CNC(=O)[C@H](CCCCN)NCc1ccccc1)OCCCCCCCCCCCCCC` (some centres not stated), the half-inhibitory concentration (IC50) was > 30 µM.

As to `CCCCCCCCCCCCCCOCC(CNC(=O)c1cccc(N2CCNCC2)c1)OCCCCCCCCCCCCCC` (configuration not stated), the concentration for half-maximal inhibition (IC50) was > 30 µM.

`CCCCCCCCCCCCCCOCC(CNC(=O)c1cccc(C2CCNCC2)c1)OCCCCCCCCCCCCCC` (configuration not stated): the IC50 was > 30 µM.

Source of the values: BindingDB's records for doi:10.1016/j.bmcl.2021.127861 (Neuropore Therapies, 2021).
